Marks after values point to notes of the source that are not given here.
Key:
Assay type in all cases: cell-based
Carnobacterium divergens = assay: Agar diffusion method, spectrum of activity; design: key to Sensitivity to divergicin M35: +, inhibition;; −, no inhibition; conditions: strain ATCC 385
Description: (§1) Bacteria stocks were maintained as 20% glycerol stock, at −80° C., for further use. Carnobacterium sp. and Lactococcus sp. strains were cultivated in MRS broth comprising 0.1% (vol/vol) Tween 80® in aerobic condition at 30° C., as currently known in the art. Listeria monocytogenes and Escherichia coli were grown in tryptic soy broth (TSB), supplemented with 0.6% (wt/vol) yeast extract in aerobic conditions, at 37° C., while Listeria innocua and L. ivanovii were re-cultivated in TSB with yeast extract and incubated aerobically at 30° C. Streptococcus thermophilus, Propionibacterium sp. and pediococci were activated in MRS broth at 37° C. under aerobic condition. All lactobacilli and bifidobacteria were grown in MRS broth supplemented with 0.05% (wt/vol) L-cysteine-hydrochloride and incubated anaerobically in Oxoid jars using an atmosphere generation system, at 37° C. In prior experiments, bacteria strains were sub-cultured at least three times (1%, vol/vol) in respective media at 24 h intervals.
(§2) The antibacterial activity of bacteriocin produced by C. divergens M35 was tested toward a variety of bacteria species, listed in Table 1, and belonging to genus Listeria, Lactobacillus, Streptococcus, Lactococcus, Propionibacterium and Escherichia, and was evaluated following the agar diffusion method, as is well known to those skilled in the art.

Carnobacterium piscicola = assay: Agar diffusion method, spectrum of activity; design: key to Sensitivity to divergicin M35: +, inhibition;; −, no inhibition; conditions: strain ATCC 386
Description: as §1, §2

Escherichia coli = assay: Agar diffusion method, spectrum of activity; design: key to Sensitivity to divergicin M35: +, inhibition;; −, no inhibition
Description: as §1, §2

L. grayi = assay: Agar diffusion method, spectrum of activity; design: key to Sensitivity to divergicin M35: +, inhibition;; −, no inhibition; conditions: strain LSD 13
Description: as §1, §2

L. innocua = assay: Agar diffusion method, spectrum of activity; design: key to Sensitivity to divergicin M35: +, inhibition;; −, no inhibition; conditions: strain HPB13
Description: as §1, §2

L. murayi = assay: Agar diffusion method, spectrum of activity; design: key to Sensitivity to divergicin M35: +, inhibition;; −, no inhibition; conditions: strain LSD 14
Description: as §1, §2

L. seeligeri = assay: Agar diffusion method, spectrum of activity; design: key to Sensitivity to divergicin M35: +, inhibition;; −, no inhibition; conditions: strain LSD 11
Description: as §1, §2

L. welshimeri = assay: Agar diffusion method, spectrum of activity; design: key to Sensitivity to divergicin M35: +, inhibition;; −, no inhibition; conditions: strain LSD 12
Description: as §1, §2

Listeria monocytogenes = assay: Agar diffusion method, spectrum of activity; design: key to Sensitivity to divergicin M35: +, inhibition;; −, no inhibition
Description: as §1, §2

Bifidobacterium breve = assay: Agar diffusion method, spectrum of activity; design: key: +, inhibition;; −, no inhibition; conditions: strain ATCC 15700
Description: as §1, §2

L. ivanovii = assay: Agar diffusion method, spectrum of activity; design: key: +, inhibition;; −, no inhibition
Description: as §1, §2

[1] = system: Lactobacillus acidophilus; assay: Agar diffusion method, spectrum of activity; design: key: +, inhibition;; −, no inhibition; conditions: strain R 0052
Description: as §1, §2

Lactobacillus casei = assay: Agar diffusion method, spectrum of activity; design: key: +, inhibition;; −, no inhibition; conditions: strain R R0256
Description: as §1, §2

[2] = system: Lactobacillus delbrueckii subsp. lactis; assay: Agar diffusion method, spectrum of activity; design: key: +, inhibition;; −, no inhibition; conditions: strain R 0187
Description: as §1, §2

Lactobacillus plantarum = assay: Agar diffusion method, spectrum of activity; design: key: +, inhibition;; −, no inhibition; conditions: strain R 1012
Description: as §1, §2

Lactobacillus rhamnosus = assay: Agar diffusion method, spectrum of activity; design: key: +, inhibition;; −, no inhibition; conditions: strain R 0011
Description: as §1, §2

Lactobacillus salivarius = assay: Agar diffusion method, spectrum of activity; design: key: +, inhibition;; −, no inhibition; conditions: strain R 0078
Description: as §1, §2

[3] = system: Lactococcus lactis (subsp. lactis biovar. diacetylactis); assay: Agar diffusion method, spectrum of activity; design: key: +, inhibition;; −, no inhibition
Description: as §1, §2

[4] = system: Lactococcus lactis (subsp. lactis); assay: Agar diffusion method, spectrum of activity; design: key: +, inhibition;; −, no inhibition; conditions: strain R0058
Description: as §1, §2

Pediococcus acidilactici = assay: Agar diffusion method, spectrum of activity; design: key: +, inhibition;; −, no inhibition
Description: as §1, §2

Pediococcus pentosaceus = assay: Agar diffusion method, spectrum of activity; design: key: +, inhibition;; −, no inhibition; conditions: strain R 1044
Description: as §1, §2

[5] = system: Propionibacterium freudenreichii; assay: Agar diffusion method, spectrum of activity; design: key: +, inhibition;; −, no inhibition; conditions: strain R 0501
Description: as §1, §2

Propionibacterium sp. = assay: Agar diffusion method, spectrum of activity; design: key: +, inhibition;; −, no inhibition; conditions: strain P5
Description: as §1, §2

[6] = system: Streptococcus thermophilus; assay: Agar diffusion method, spectrum of activity; design: key: +, inhibition;; −, no inhibition; conditions: strain R 0083
Description: as §1, §2

L. innocua HPB13 [7] = assay: Critical-dilution micromethod (microtiter plate assay) on purification stages; conditions: specific activity at stage ni divided by that of the culture supernatant
Description: The concentrated bacteriocin was further purified by Reverse-Phase Column Liquid Chromatography (RP-HPLC) using a Beckman Gold System (Beckman Coulter Canada Inc., Mississauga, ON, Canada). Briefly, 100 μl of the concentrated bacteriocin were injected into an analytic C18 reverse-phase column (Luna 5μ, 4.6×250 mm, Phenomenex, Calif., USA). Elution was performed at a flow rate of 1 ml/min using a linear gradient from 90% solvent A (0.1% (wt/vol) trifluoroacetic acid (TFA) prepared in 5% (vol/vol) acetonitrile in water) and 10% solvent B (0.1% TFA in 100% acetonitrile) to 42 and 58% of solvents A and B, respectively, for 46 min. Peptide fractions were detected by spectrophotometry by measuring the absorbance at 220 nm and were collected manually. The fractions were concentrated using a speed-vac concentrator, dissolved in acetate buffer ([…], pH 4.0) and assayed for both bacteriocin activity by the critical-dilution micromethod, and protein content.
Protein concentration was determined as known in the art. […] Optical densities (650 nm) were then measured using a Thermo-max molecular device spectrophotometer (OPTI-Resources Inc., Quebec, PQ, Canada). […]
The biological activity of divergicin M35 was determined during the purification procedure by both agar diffusion and critical-dilution methods using L. innocua HPB 13 as indicator strain.

L. innocua HPB13 [8] = assay: Bacteriocin activity during growth of C. divergens M35 in MRS broth, critical-dilution micromethod; conditions: 30° C.
Description: Protein concentration was determined as known in the art. Two-fold serial dilutions of 125 μl of tested sample were transferred into wells with a flat bottom microtest™ polystyrene microplate (96-well microtest, Becton Dickinson Labware, Franklin Lakes, N.J., USA), previously filled with 125 μl tryptic soy broth supplemented with 0.6% yeast extract (wt/vol). Each well was inoculated with 50 μl of 1000-fold diluted overnight culture of L. innocua HPB13 (final concentration of approximately 10^6 cfu/ml) and incubated at 30° C. for 18 h. Optical densities (650 nm) were then measured using a Thermo-max molecular device spectrophotometer (OPTI-Resources Inc., Quebec, PQ, Canada). The bacteriocin activity, expressed in arbitrary units per milliliter (AU/ml), was defined as the highest bacteriocin dilution showing complete inhibition of the indicator strain (optical density equals to that in un-inoculated media).
A C. divergens M35 culture were diluted (1% vol/vol) in peptone water (0.1%), plated on MRS agar supplemented with 0.1% vol/vol Tween 80® and incubated aerobically at 30° C. for 24 h. Bacterial viable counts, bacteriocin activity and pH were determined at 2 h intervals. Bacteriocin activity was determined according to the critical-dilution micromethod described hereinabove, using 5 ml of culture supernatant, separated by centrifugation and heated at 100° C.

Substance: divergicin M35: class IIa bacteriocin of 43 amino acids, 4518 Da, produced by Carnobacterium divergens strain M35 (SEQ ID NO: 1) (TKYYGNGVYCNSKKCWVDWGTAQGCIDVVIGQLGGGIPGKGKC; listed as Carnobacterium divergens)
- Diameter of inhibition zone (mm) (Carnobacterium divergens): 15.0 ± 1 mm
- Sensitivity to divergicin M35 (Carnobacterium divergens): +
- Diameter of inhibition zone (mm) (Carnobacterium piscicola): 17.5 ± 1 mm
- Sensitivity to divergicin M35 (Carnobacterium piscicola): +
- Sensitivity to divergicin M35 (Escherichia coli; Escherichia coli 22): −
- Sensitivity to divergicin M35 (Escherichia coli; Escherichia coli 43): −
- effect on Gram-negative strains (in words) (Escherichia coli; Escherichia coli strains tested): not affected
- Diameter of inhibition zone (mm) (L. grayi): 15.0 ± 1 mm
- Sensitivity to divergicin M35 (L. grayi): +
- Diameter of inhibition zone (mm) (L. innocua): 21 ± 0.5 mm
- Sensitivity to divergicin M35 (L. innocua): +
- Diameter of inhibition zone (mm) (L. murayi): 17.5 ± 1 mm
- Sensitivity to divergicin M35 (L. murayi): +
- Diameter of inhibition zone (mm) (L. seeligeri): 13.5 ± 1 mm
- Sensitivity to divergicin M35 (L. seeligeri): +
- Diameter of inhibition zone (mm) (L. welshimeri): 20 ± 0.5 mm
- Sensitivity to divergicin M35 (L. welshimeri): +
- time the antibacterial activity (diameter of the inhibition zone) remained stable (Listeria monocytogenes; in every case (sensitive Listeria strains)): ≥ 36 h
- number of strains sensitive to divergicin M35 (Listeria monocytogenes; of the 24 tested strains of L. monocytogenes): 22
- Sensitivity to divergicin M35 (Listeria monocytogenes; strain ATCC 19111): +
- Sensitivity to divergicin M35 (Listeria monocytogenes; strain ATCC 19112): +
- Sensitivity to divergicin M35 (Listeria monocytogenes; strain ATCC 19114): +
- Sensitivity to divergicin M35 (Listeria monocytogenes; strain ATCC 19115): +
- Sensitivity to divergicin M35 (Listeria monocytogenes; strain ATCC 35152): +
- Sensitivity to divergicin M35 (Listeria monocytogenes; strain LSD 15): −
- sensitivity to divergicin M35 (in words) (Listeria monocytogenes; strain LSD 15): resistant
- Diameter of inhibition zone (mm) (Listeria monocytogenes; strain LSD 332): 18.5 ± 1 mm
- Sensitivity to divergicin M35 (Listeria monocytogenes; strain LSD 332): +
- Diameter of inhibition zone (mm) (Listeria monocytogenes; strain LSD 336): 16.5 ± 0.5 mm
- Sensitivity to divergicin M35 (Listeria monocytogenes; strain LSD 336): +
- Diameter of inhibition zone (mm) (Listeria monocytogenes; strain LSD 338): 18.0 ± 0.5 mm
- Sensitivity to divergicin M35 (Listeria monocytogenes; strain LSD 338): +
- Diameter of inhibition zone (mm) (Listeria monocytogenes; strain LSD 339): 19.0 ± 0.5 mm
- Sensitivity to divergicin M35 (Listeria monocytogenes; strain LSD 339): +
- Diameter of inhibition zone (mm) (Listeria monocytogenes; strain LSD 340): 17.0 ± 0.5 mm
- Sensitivity to divergicin M35 (Listeria monocytogenes; strain LSD 340): +
- Diameter of inhibition zone (mm) (Listeria monocytogenes; strain LSD 341): 13.0 ± 0.5 mm
- Sensitivity to divergicin M35 (Listeria monocytogenes; strain LSD 341): +
- Diameter of inhibition zone (mm) (Listeria monocytogenes; strain LSD 346): 17.5 ± 1 mm
- Sensitivity to divergicin M35 (Listeria monocytogenes; strain LSD 346): +
- Diameter of inhibition zone (mm) (Listeria monocytogenes; strain LSD 348): 17.5 ± 1 mm
- Sensitivity to divergicin M35 (Listeria monocytogenes; strain LSD 348): +
- Diameter of inhibition zone (mm) (Listeria monocytogenes; strain LSD 523): 10 ± 1^b mm
- Sensitivity to divergicin M35 (Listeria monocytogenes; strain LSD 523): +
- Diameter of inhibition zone (mm) (Listeria monocytogenes; strain LSD 524): 22.0 ± 1^b mm
- Sensitivity to divergicin M35 (Listeria monocytogenes; strain LSD 524): +
- Sensitivity to divergicin M35 (Listeria monocytogenes; strain LSD 525): −
- sensitivity to divergicin M35 (in words) (Listeria monocytogenes; strain LSD 525): resistant
- Diameter of inhibition zone (mm) (Listeria monocytogenes; strain LSD 526): 21.0 ± 1 mm
- Sensitivity to divergicin M35 (Listeria monocytogenes; strain LSD 526): +
- Diameter of inhibition zone (mm) (Listeria monocytogenes; strain LSD 529): 14.5 ± 0.5 mm
- Sensitivity to divergicin M35 (Listeria monocytogenes; strain LSD 529): +
- Diameter of inhibition zone (mm) (Listeria monocytogenes; strain LSD 530): 19.0 ± 1 mm
- Sensitivity to divergicin M35 (Listeria monocytogenes; strain LSD 530): +
- Diameter of inhibition zone (mm) (Listeria monocytogenes; strain LSD 531): 18.5 ± 1 mm
- Sensitivity to divergicin M35 (Listeria monocytogenes; strain LSD 531): +
- Diameter of inhibition zone (mm) (Listeria monocytogenes; strain LSD 532): 20.0 ± 0.5^b mm
- Sensitivity to divergicin M35 (Listeria monocytogenes; strain LSD 532): +
- Diameter of inhibition zone (mm) (Listeria monocytogenes; strain LSD 535): 19.0 ± 0.5 mm
- Sensitivity to divergicin M35 (Listeria monocytogenes; strain LSD 535): +
- Diameter of inhibition zone (mm) (Listeria monocytogenes; strain LSD 538): 20.0 ± 0.5 mm
- Sensitivity to divergicin M35 (Listeria monocytogenes; strain LSD 538): +
- Sensitivity to divergicin M35 (Bifidobacterium breve): −
- Sensitivity to divergicin M35 (L. ivanovii; strain ATCC19119): −
- Sensitivity to divergicin M35 (L. ivanovii; strain HPB28): +
- Sensitivity to divergicin M35 [1]: −
- Sensitivity to divergicin M35 (Lactobacillus casei): −
- Sensitivity to divergicin M35 [2]: −
- Sensitivity to divergicin M35 (Lactobacillus plantarum): −
- Sensitivity to divergicin M35 (Lactobacillus rhamnosus): −
- Sensitivity to divergicin M35 (Lactobacillus salivarius): −
- Sensitivity to divergicin M35 ([3]; strain R 0100): −
- Sensitivity to divergicin M35 ([3]; strain UL719): −
- Sensitivity to divergicin M35 [4]: −
- Sensitivity to divergicin M35 (Pediococcus acidilactici; strain R 1001): −
- Sensitivity to divergicin M35 (Pediococcus acidilactici; strain UL 5): −
- Sensitivity to divergicin M35 (Pediococcus pentosaceus): −
- Sensitivity to divergicin M35 [5]: −
- Sensitivity to divergicin M35 (Propionibacterium sp.): −
- Sensitivity to divergicin M35 [6]: −
- Increase in specific Activity (fold) (L. innocua HPB13 [7]): 9500 fold
- biological activity of divergicin M35 in culture (L. innocua HPB13 [8]; after 10 h of growth): approximately 18000 AU/ml
- biological activity of divergicin M35 in culture, maximum (L. innocua HPB13 [8]; after 14 h of growth): 65000 AU/ml
